Read-outs that look alike come from different tables or passages of the source.
Tests used:
[1] = tested on: HCT116 MTAP-deleted cells; experiment: Cell viability assay (CellTiter-Glo, 7 days), HCT116 MTAP-deleted; conditions: Homo sapiens, HCT-116, 168 h
[2] = tested on: SDMA signal (PRMT5 inhibition) in HCT116 MTAP-deleted cells; experiment: Symmetric di-methyl arginine image-based high content screen assay (SDMA assay), HCT116 MTAP-deleted; type: cell-based; conditions: for EC50: Homo sapiens, HCT-116, 72 h, read-out: EC50 (SDMA assay)
Summary of the method: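 HCT116 MTAP-deleted cells treated with compound until Day 3, then formalin-fixed, permeabilized and immunostained for SDMA, with DAPI nuclear counterstain. Imaged by high-content microscopy; SDMA read-out is mean Alexa 488 intensity per DAPI-defined cell, reflecting PRMT5 inhibition.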

[3] = SDMA assay, 3 days of treatment, cell line not given, taken as HCT116 MTAP-deleted
[4] = SDMA assay, taken as HCT116 WT versus MTAP-deleted
[5] = SDMA assay, taken as HCT116 WT vs MTAP-deleted

## Nc1nc2ccc(C(=O)N(Cc3ccc(C(F)(F)F)cn3)N3CCCCC3=O)cc2c2[nH]ncc12 [Example 202, 4-amino-N-(2-oxo-1-piperidyl)-N-[[5-(trifluoromethyl)-2-pyridyl]methyl]-1H-pyrazolo[4,3-c]quinoline-8-carboxamide]
[1]
  CC50: < 100 nM
[2]; [3]
  EC50: 1 to 5 nM
[2]; [4]
  EC50 selectivity (SDMA assay): 10

## CC(=O)N(C)N(Cc1nc2ccc(F)cc2s1)C(=O)c1ccc2nc(N)c3cnn(C)c3c2c1 [Example 86, N′-Acetyl-4-amino-N-[(6-fluoro-1,3-benzothiazol-2-yl)methyl]-N′, 1-dimethyl-pyrazolo[4,3-c]quinoline-8-carbohydrazide]
[1]
  CC50: < 100 nM
[2]; [3]
  EC50: < 1 nM
[2]; [4]
  EC50 selectivity (SDMA assay): 92

## CC(=O)N(C)N(Cc1ccc(-c2cnn(C(F)(F)F)c2)cc1F)C(=O)c1ccc2nc(N)c3cnn(C)c3c2c1 [Example 222, N′-acetyl-4-amino-N-(2-fluoro-4-(1-(trifluoromethyl)-1H-pyrazol-4-yl)benzyl)-N′,1-dimethyl-1H-pyrazolo[4,3-c]quinoline-8-carbohydrazide]
[1]
  CC50: < 100 nM
[2]; [3]
  EC50: < 1 nM
[2]; [4]
  EC50 selectivity (SDMA assay): 123

## CN(C(=O)C1CC1)N(Cc1ccc(F)cc1F)C(=O)c1ccc2nc(N)c3cnn(C)c3c2c1 [Example 122, 4-amino-N′-(cyclopropanecarbonyl)-N-(2,4-difluorobenzyl)-N′,1-dimethyl-1H-pyrazolo[4,3-c]quinoline-8-carbohydrazide]
[1]
  CC50: < 100 nM
[2]; [3]
  EC50: < 1 nM
[2]; [4]
  EC50 selectivity (SDMA assay): 261

## CN(C(=O)C(F)(F)C1CC1)N(Cc1ccc(C(F)(F)F)cn1)C(=O)c1ccc2nc(N)c3cnn(C)c3c2c1 [Example 342, 4-amino-N′-(2-cyclopropyl-2,2-difluoroacetyl)-N′,1-dimethyl-N-((5-(trifluoromethyl)pyridin-2-yl)methyl)-1H-pyrazolo[4,3-c]quinoline-8-carbohydrazide]
[1]
  CC50: < 100 nM
[2]; [3]
  EC50: 1 to 5 nM
[2]; [4]
  EC50 selectivity (SDMA assay): 30

## [2H]C([2H])(c1ccc(C(F)(F)F)cn1)N(C(=O)c1ccc2nc(N)c3cnn(C([2H])([2H])[2H])c3c2c1)N(C)C(=O)C1CC1 [Example 254, 4-amino-N′-(cyclopropanecarbonyl)-N′-methyl-1-(methyl-d3)-N-((5-(trifluoromethyl)pyridin-2-yl)methyl-d2)-1H-pyrazolo[4,3-c]quinoline-8-carbohydrazide]
[1]
  CC50: < 100 nM
[2]; [3]
  EC50: < 1 nM
[2]; [4]
  EC50 selectivity (SDMA assay): 266

## CC(=O)N(C)N(Cc1ccc(C(F)(F)F)cn1)C(=O)c1cc2c(cc1F)nc(N)c1cnn(C)c12 [Example 34, N′-acetyl-4-amino-7-fluoro-N′, 1-dimethyl-N-[[5-(trifluoromethyl)-2-pyridyl]methyl]pyrazolo[4,3-c]quinoline-8-carbohydrazide]
[1]
  CC50: < 100 nM
[2]; [3]
  EC50: 1 to 5 nM
[2]; [4]
  EC50 selectivity (SDMA assay): 8

## CN(C(=O)c1cocn1)N(Cc1ccc(C(F)(F)F)cn1)C(=O)c1ccc2nc(N)c3cnn(C)c3c2c1 [Example 105, N′-(4-amino-1-methyl-1H-pyrazolo[4,3-c]quinoline-8-carbonyl)-N-methyl-N′-((5-(trifluoromethyl)pyridin-2-yl)methyl)oxazole-4-carbohydrazide]
[1]
  CC50: < 100 nM
[2]; [3]
  EC50: < 1 nM
[2]; [4]
  EC50 selectivity (SDMA assay): 15

## Cn1ncc2c(N)nc3ccc(C(=O)N(Cc4ccc(F)cc4F)N4CCOCC4)cc3c21 [Example 365, 4-amino-N-(2,4-difluorobenzyl)-1-methyl-N-morpholino-1H-pyrazolo[4,3-c]quinoline-8-carboxamide]
[1]
  CC50: 100 to 1000 nM
[2]; [3]
  EC50: 1 to 5 nM
[2]; [4]
  EC50 selectivity (SDMA assay): 233

## Cn1ncc2c(N)nc3ccc(C(=O)N(Cc4ccc(C(F)(F)F)cn4)N4C[C@@H]5C[C@H]4CO5)cc3c21 [Example 297, 4-amino-N-((1S,4S)-2-oxa-5-azabicyclo[2.2.1]heptan-5-yl)-1-methyl-N-((5-(trifluoromethyl)pyridin-2-yl)methyl)-1H-pyrazolo[4,3-c]quinoline-8-carboxamide]
[1]
  CC50: 100 to 1000 nM
[2]; [3]
  EC50: 1 to 5 nM
[2]; [4]
  EC50 selectivity (SDMA assay): 151

## CN(C(=O)Oc1ccccc1)N(Cc1ccc(C(F)(F)F)cn1)C(=O)c1ccc2nc(N)c3cnn(C)c3c2c1 [Example 14, Phenyl 2-(4-amino-1-methyl-1H-pyrazolo[4,3-c]quinoline-8-carbonyl)-1-methyl-2-((5-(trifluoromethyl)pyridin-2-yl)methyl)hydrazine-1-carboxylate]
[1]
  CC50: < 100 nM
[2]
  EC50: 1 to 5 nM
[2]; [4]
  EC50 selectivity (SDMA assay): 148

## CC(=O)N(C)N(Cc1c(F)cc(C(F)(F)F)cc1F)C(=O)c1ccc2nc(N)c3cnn(C)c3c2c1 [Example 415, N′-acetyl-4-amino-N-(2,6-difluoro-4-(trifluoromethyl)benzyl)-N′,1-dimethyl-1H-pyrazolo[4,3-c]quinoline-8-carbohydrazide]
[1]
  CC50: < 100 nM
[2]; [3]
  EC50: < 1 nM
[2]; [5]
  EC50 selectivity (SDMA assay): 26

## CN(C(=O)[C@H]1CCO1)N(Cc1ccc(C(F)(F)F)cc1F)C(=O)c1ccc2nc(N)c3cnn(C)c3c2c1 [Example 197, 4-amino-N-[[2-fluoro-4-(trifluoromethyl)phenyl]methyl]-N′,1-dimethyl-N′-[(2R)-oxetane-2-carbonyl]pyrazolo[4,3-c]quinoline-8-carbohydrazide]
[1]
  CC50: < 100 nM
[2]; [3]
  EC50: < 1 nM
[2]; [4]
  EC50 selectivity (SDMA assay): 61

## CC(=O)N(C)N(Cc1ccc(F)cc1F)C(=O)c1ccc2nc(N)c3cnn(C)c3c2c1 [Example 47, N′-acetyl-4-amino-N-[(2,4-difluorophenyl)methyl]-N′,1-dimethyl-pyrazolo[4,3-c]quinoline-8-carbohydrazide]
[1]
  CC50: < 100 nM
[2]; [3]
  EC50: < 1 nM
[2]; [4]
  EC50 selectivity (SDMA assay): 121

## CC(=O)N(C)N(Cc1ccc(-c2ccn(C(F)(F)F)n2)cc1F)C(=O)c1ccc2nc(N)c3cnn(C)c3c2c1 [Example 249, N′-acetyl-4-amino-N-(2-fluoro-4-(1-(trifluoromethyl)-1H-pyrazol-3-yl)benzyl)-N′,1-dimethyl-1H-pyrazolo[4,3-c]quinoline-8-carbohydrazide]
[1]
  CC50: < 100 nM
[2]; [3]
  EC50: < 1 nM
[2]; [4]
  EC50 selectivity (SDMA assay): 193

## CN(C(=O)C1CC1)N(Cc1ncc(C(F)(F)F)cc1F)C(=O)c1ccc2nc(N)c3cnn(C)c3c2c1 [Example 274, 4-amino-N′-(cyclopropanecarbonyl)-N-((3-fluoro-5-(trifluoromethyl)pyridin-2-yl)methyl)-N′,1-dimethyl-1H-pyrazolo[4,3-c]quinoline-8-carbohydrazide]
[1]
  CC50: < 100 nM
[2]; [3]
  EC50: < 1 nM
[2]; [4]
  EC50 selectivity (SDMA assay): 243

## [2H]C([2H])([2H])n1ncc2c(N)nc3ccc(C(=O)N(Cc4ccc(C(F)(F)F)cn4)N(C)C(=O)C4CC4)cc3c21 [Example 257, 4-amino-N′-(cyclopropanecarbonyl)-N′-methyl-1-(methyl-d3)-N-((5-(trifluoromethyl)pyridin-2-yl)methyl)-1H-pyrazolo[4,3-c]quinoline-8-carbohydrazide]
[1]
  CC50: < 100 nM
[2]; [3]
  EC50: < 1 nM
[2]; [4]
  EC50 selectivity (SDMA assay): 213

## Cn1ncc2c(N)nc3ccc(C(=O)N(Cc4nc5cc(C(F)(F)F)ccc5s4)N4CCOC4=O)cc3c21 [Example 89, 4-Amino-1-methyl-N-(2-oxooxazolidin-3-yl)-N-[[5-(trifluoromethyl)-1,3-benzothiazol-2-yl]methyl]pyrazolo[4,3-c]quinoline-8-carboxamide]
[1]
  CC50: < 100 nM
[2]; [3]
  EC50: < 1 nM
[2]; [4]
  EC50 selectivity (SDMA assay): 204

## Cn1ncc2c(N)nc3cc(F)c(C(=O)N(Cc4ccc(C(F)(F)F)cc4F)N4CCOCC4)cc3c21 [Example 398, 4-amino-7-fluoro-N-[[2-fluoro-4-(trifluoromethyl)phenyl]methyl]-1-methyl-N-morpholino-pyrazolo[4,3-c]quinoline-8-carboxamide]
[1]
  CC50: < 100 nM
[2]; [3]
  EC50: 1 to 5 nM
[2]; [5]
  EC50 selectivity (SDMA assay): 31

## CC(=O)N(C)N(Cc1ccc(-c2ccc(C(F)(F)F)nc2)cc1F)C(=O)c1ccc2nc(N)c3cnn(C)c3c2c1 [Example 229, N′-acetyl-4-amino-N-(2-fluoro-4-(6-(trifluoromethyl)pyridin-3-yl)benzyl)-N′,1-dimethyl-1H-pyrazolo[4,3-c]quinoline-8-carbohydrazide]
[1]
  CC50: < 100 nM
[2]; [3]
  EC50: 1 to 5 nM
[2]; [4]
  EC50 selectivity (SDMA assay): 43

## CC(=O)N(C)N(Cc1ccc2nsnc2c1)C(=O)c1ccc2nc(N)c3cnn(C)c3c2c1 [Example 96, N′-acetyl-4-amino-N-(2,1,3-benzothiadiazol-5-ylmethyl)-N′,1-dimethyl-pyrazolo[4,3-c]quinoline-8-carbohydrazide]
[1]
  CC50: < 100 nM
[2]; [3]
  EC50: 1 to 5 nM
[2]; [4]
  EC50 selectivity (SDMA assay): 290

## CN(C(=O)OCC(F)(F)F)N(Cc1ccc(C(F)(F)F)cn1)C(=O)c1ccc2nc(N)c3cnn(C)c3c2c1 [Example 109, 2,2,2-trifluoroethyl N-[(4-amino-1-methyl-pyrazolo[4,3-c]quinoline-8-carbonyl)-[[5-(trifluoromethyl)-2-pyridyl]methyl]amino]-N-methyl-carbamate]
[1]
  CC50: < 100 nM
[2]; [3]
  EC50: < 1 nM
[2]; [4]
  EC50 selectivity (SDMA assay): 12

## Nc1nc2cc(F)c(C(=O)N3CCCCN3c3ccc(C(F)(F)F)cn3)cc2c2cscc12 [Example 131, (4-amino-7-fluoro-thieno[3,4-c]quinolin-8-yl)-[2-[5-(trifluoromethyl)-2-pyridyl]hexahydropyridazin-1-yl]methanone]
[1]
  CC50: > 1000 nM
[2]; [3]
  EC50: > 5 nM
[2]; [4]
  EC50 selectivity (SDMA assay): 279

From patent publication US20240254118A1, “PRMT5 INHIBITORS AND USES THEREOF” (Gilead Sciences, Inc., priority 2022, published 2024)
